Measurements: US12065428B2, “Anti-viral compounds” (Aligos Therapeutics, Inc., priority 2021, dated 2024)
Where two headings read alike, the source gives them in different places.

How the values were obtained:
[1] = test system: human beta-coronavirus OC43; experiment: OC43 coronavirus assay in HeLa cells (cytopathic effect, cell-titer-glo); assay type: cell-based; settings: Betacoronavirus 1, 144 h; OC43 in HeLa cells, 6 days at 33° C.; class symbols; read-out: EC50
human cathepsin L = target: T1, human cathepsin L (Homo sapiens, UniProt P07711); experiment: Cathepsin L assay (Z-FR-AMC fluorescence); assay type: biochemical; settings: 10 pM human cathepsin L, 30 mins preincubation; class symbols
T1 construct: purchased R&D Systems
T1 sequence (P07711 114-333): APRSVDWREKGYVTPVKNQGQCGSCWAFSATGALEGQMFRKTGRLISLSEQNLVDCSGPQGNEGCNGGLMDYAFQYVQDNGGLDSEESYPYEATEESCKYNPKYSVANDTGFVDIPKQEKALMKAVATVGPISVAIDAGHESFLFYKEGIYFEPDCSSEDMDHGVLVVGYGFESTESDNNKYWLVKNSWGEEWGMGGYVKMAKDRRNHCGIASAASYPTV
Protocol: For the cathepsin L assay, 10 pM of human cathepsin L (R&D Systems; Minneapolis, MN) was preincubated for 30 mins with test compounds. Reactions were initiated by the addition of a peptide substrate Z-FR-AMC (final concentration 2 μM, Anaspec; Fremont, CA). Fluorescence was measured at 2-minute intervals for 30 mins using a 355/460 excitation/emission filter module on an Envision plate reader (Perkin Elmer; Waltham, MA). The IC50 values were calculated for each assay by fitting the curves using a four-parameter equation in GraphPad Prism.

[2] = Cytotoxicity plates without OC43 virus in HeLa cells; assay type: cell-based; settings: human, HeLa cells (uninfected)
Protocol: The human beta-coronavirus OC43 was purchased from ATCC (Manassas, VA) and propagated using HCT-8 human colorectal epithelial cells (ATCC). HeLa human cervical epithelial cells (ATCC) were used as susceptible host cell lines and were cultured using EMEM media, supplemented with 10% fetal bovine serum (FBS), 1% (v/v) penicillin/streptomycin (P/S), 1% (v/v) HEPES and 1% (v/v) cellgro Glutagro™ supplement (all Corning, Manassas, VA) at 37° C. For the OC43 antiviral assay, 1.5×10^4 HeLa cells per well were plated in 100 μL complete media in white 96-well plates with clear bottoms at 37° C. for up to 24 h to facilitate attachment and allow cells to recover from seeding stresses. Next day, the cell culture medium was removed. Serially diluted compounds in 100 μL assay media (EMEM, 2% FBS, 1% P/S, 1% cellgro Glutagro™ supplement, 1% HEPES) were added to the cells and incubated for 4H at 37° C. in a humidified 5% CO2 incubator. 100 μL of OC43 virus stock was diluted to a concentration known to produce optimal cytopathic effect, inducing 80-90% reduction in cell viability. 96-well plates were incubated for 6 (HeLa) days at 33° C.; each plate contains uninfected control wells as well as virus-infected wells that were not treated with compound. Cytotoxicity plates without the addition of OC43 virus were carried out in parallel. At the end of the incubation period, 100 μL cell culture supernatant was replaced with 100 μL cell-titer-glo reagent (Promega, Madison, WI) and incubated for at least 10 min at rt prior to measuring luminescence. Luminescence was measured on a Perkin Elmer (Waltham, MA) Envision plate reader. Antiviral % inhibition was calculated as follows: [(Compound treated cells infected sample)−(no compound infected control)]/[(Uninfected control)−(no compound infected control)]*100; Using GraphPad (San Diego, CA) prism software version 8.3.1, the antiviral dose-response plot was generated as a sigmoidal fit, log(inhibitor) vs response-variable slope (four parameters) model and the EC50 was calculated which is the predicted compound concentration corresponding to a 50% inhibition of the viral cytopathic effect.

HRV3C = target: T2, HRV3C (Human rhinovirus 14, UniProt P03303); experiment: biochemical; settings: read-out: HRV IC50
T2 construct: SARS-Cov-2 3CLpro and HRV3C Duplex Assay
T2 sequence (P03303 1538-1719): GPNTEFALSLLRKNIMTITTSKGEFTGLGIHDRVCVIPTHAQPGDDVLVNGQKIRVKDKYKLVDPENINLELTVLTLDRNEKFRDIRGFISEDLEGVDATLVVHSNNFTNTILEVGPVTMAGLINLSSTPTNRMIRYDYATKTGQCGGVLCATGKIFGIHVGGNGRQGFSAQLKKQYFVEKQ

SARS-Cov-2 3CLpro = target: T3, SARS-Cov-2 3CLpro (Severe acute respiratory syndrome coronavirus 2, UniProt P0DTD1); experiment: SARS-Cov-2 3CLpro and HRV3C duplex assay (SAMDI-MS): 3CLpro; assay type: biochemical; settings: 3CLpro, duplex assay, 30 mins preincubation; class symbols; read-out: SARS-Cov-2 IC50
T3 construct: SARS-Cov-2 3CLpro and HRV3C Duplex Assay

[3] = test system: SARS-CoV-2-GHB-03021/2020; experiment: microbe, parasite or virus in culture; assay type: cell-based; settings: Severe acute respiratory syndrome coronavirus 2, Vero C1008, 96 h; read-out: VeroE6 + CP (EC50)
[4] = HRV3C, duplex assay, 30 mins preincubation, class symbols

O=C(NC1CC1)C(=O)C(C[C@@H]1CCNC1=O)NC(=O)[C@@H]1[C@@H]2C[C@@H](CC23CC3)N1C(=O)c1nc(-c2ccccc2)cs1 (stereo partly drawn) [Compound 26, N-cyclopropyl-2-oxo-4-[(3S)-2-oxopyrrolidin-3-yl]-3-[(1R,4S,6S)-5-(4-phenyl-1,3-thiazole-2-carbonyl)-5-azaspiro[bicyclo[2.2.1]heptane-2,1′-cyclopropan]-6-ylformamido]butanamide]
EC50 [1]: 1000 to 10000 nM | IC50 (human cathepsin L): ≥ 10000 nM | CC50 at 6 days ([2]; class symbols): ≥ 100000 nM | IC50 (HRV3C; [4]): 200 to 2000 nM | IC50 (SARS-Cov-2 3CLpro): 200 to 2000 nM | EC50 [3]: 1000 to 10000 nM

CC(C)n1c(C(=O)N2CCC3(CC3)C[C@H]2C(=O)N[C@@H](C[C@@H]2CCNC2=O)C(=O)C(=O)NC2CC2)cc2ccccc21 [Compound 27]
EC50 [1]: 100 to 1000 nM | IC50 (human cathepsin L): ≥ 10000 nM | CC50 at 6 days ([2]; class symbols): ≥ 100000 nM | IC50 (HRV3C; [4]): 200 to 2000 nM | IC50 (SARS-Cov-2 3CLpro): < 20 nM | EC50 [3]: < 1000 nM

O=C(NC1CC1)C(=O)[C@H](C[C@@H]1CCNC1=O)NC(=O)[C@@H]1CC2(CCN1C(=O)c1csc3ccccc13)CC2 [Compound 28]
EC50 [1]: 1000 to 10000 nM | IC50 (human cathepsin L): ≥ 10000 nM | CC50 at 6 days ([2]; class symbols): ≥ 100000 nM | IC50 (HRV3C; [4]): 20 to 200 nM | IC50 (SARS-Cov-2 3CLpro): < 20 nM | EC50 [3]: < 1000 nM

COc1ccc2cc(C(=O)N3CCC4(CC4)C[C@H]3C(=O)N[C@@H](C[C@@H]3CCNC3=O)C(=O)C(=O)NC3CC3)n(C)c2c1 [Compound 29]
EC50 [1]: 100 to 1000 nM | IC50 (human cathepsin L): ≥ 10000 nM | CC50 at 6 days ([2]; class symbols): ≥ 100000 nM | IC50 (HRV3C; [4]): 2000 to 20000 nM | IC50 (SARS-Cov-2 3CLpro): < 20 nM | EC50 [3]: < 1000 nM

Cc1ccc2cc(C(=O)N3CCC4(CC4)C[C@H]3C(=O)N[C@@H](C[C@@H]3CCNC3=O)C(=O)C(=O)NC3CC3)n(C)c2c1 [Compound 30]
EC50 [1]: 100 to 1000 nM | IC50 (human cathepsin L): ≥ 10000 nM | CC50 at 6 days ([2]; class symbols): ≥ 100000 nM | IC50 (HRV3C): > 10000 nM | IC50 (SARS-Cov-2 3CLpro): 20 to 200 nM | EC50 [3]: < 1000 nM

Cn1c(C(=O)N2CCC3(CC3)C[C@H]2C(=O)N[C@@H](C[C@@H]2CCNC2=O)C(=O)C(=O)NC2CC2)cc2ccc(Cl)cc21 [Compound 31]
EC50 [1]: 100 to 1000 nM | IC50 (human cathepsin L): ≥ 10000 nM | CC50 at 6 days ([2]; class symbols): ≥ 100000 nM | IC50 (HRV3C; [4]): 2000 to 20000 nM | IC50 (SARS-Cov-2 3CLpro): < 20 nM | EC50 [3]: < 1000 nM

O=C(NC1CC1)C(=O)[C@H](C[C@@H]1CCNC1=O)NC(=O)[C@@H]1CC2(CCN1C(=O)[C@@H]1CCCc3ccccc31)CC2 [Compound 32]
EC50 [1]: 1000 to 10000 nM | IC50 (human cathepsin L): ≥ 10000 nM | CC50 at 6 days ([2]; class symbols): ≥ 100000 nM | IC50 (HRV3C; [4]): 200 to 2000 nM | IC50 (SARS-Cov-2 3CLpro): 20 to 200 nM | EC50 [3]: < 1000 nM

O=C(NC1CC1)C(=O)[C@H](C[C@@H]1CCNC1=O)NC(=O)[C@@H]1CC2(CCN1C(=O)[C@H]1CCCc3ccccc31)CC2 [Compound 33]
EC50 [1]: 1000 to 10000 nM | IC50 (human cathepsin L): ≥ 10000 nM | CC50 at 6 days ([2]; class symbols): ≥ 100000 nM | IC50 (HRV3C; [4]): 200 to 2000 nM | IC50 (SARS-Cov-2 3CLpro): 20 to 200 nM | EC50 [3]: < 1000 nM

CC(C)(C)[C@H](NC(=O)C(F)(F)F)C(=O)N1CCC2(CC2)C[C@H]1C(=O)N[C@H](C#N)C[C@@H]1CCNC1=O [Compound 35, (S)—N—((S)-1-cyano-2-((S)-2-oxopyrrolidin-3-yl)ethyl)-6-((S)-3,3-dimethyl-2-(2,2,2-trifluoroacetamido)butanoyl)-6-azaspiro[2.5]octane-5-carboxamide]
EC50 [1]: 100 to 1000 nM | IC50 (human cathepsin L): ≥ 10000 nM | CC50 at 6 days ([2]; class symbols): ≥ 100000 nM | IC50 (HRV3C): > 10000 nM | IC50 (SARS-Cov-2 3CLpro): < 20 nM | EC50 [3]: < 1000 nM

COc1cccc(-c2csc(C(=O)N3CCC4(CC4)C[C@H]3C(=O)N[C@@H](C[C@@H]3CCNC3=O)C(=O)C(=O)NC3CC3)n2)c1 [Compound 36]
EC50 [1]: 100 to 1000 nM | IC50 (human cathepsin L): ≥ 10000 nM | CC50 at 6 days ([2]; numeric bound, unit inferred): > 100000 nM | IC50 (HRV3C; [4]): 2000 to 20000 nM | IC50 (SARS-Cov-2 3CLpro): 200 to 2000 nM | EC50 [3]: 1000 to 10000 nM

COc1ccc(-c2csc(C(=O)N3CCC4(CC4)C[C@H]3C(=O)N[C@@H](C[C@@H]3CCNC3=O)C(=O)C(=O)NC3CC3)n2)cc1 [Compound 37]
EC50 [1]: 100 to 1000 nM | IC50 (human cathepsin L): ≥ 10000 nM | CC50 at 6 days ([2]; numeric bound, unit inferred): > 100000 nM | IC50 (HRV3C; [4]): 200 to 2000 nM | IC50 (SARS-Cov-2 3CLpro): 200 to 2000 nM | EC50 [3]: 1000 to 10000 nM
